The values that follow are results of earlier work, collected in patent US20210069214A1, “TOPICAL COMPOSITIONS COMPRISING A CORTICOSTEROID FOR THE TREATMENT OF PSORIASIS IN PEDIATRIC PATIENTS” (priority 2019, published 2021).

Molecules are shown by their SMILES.

This series concerns HPA axis. The note with it: topical.

As to `CCC(=O)O[C@]1(C(=O)CCl)[C@@H](C)C[C@H]2[C@@H]3CCC4=CC(=O)C=C[C@]4(C)[C@@]3(F)[C@@H](O)C[C@@]21C` [Clobetasol propionate, [17-(2′-chloroacetyl)-9-fluoro-11-hydroxy-10,13,16-trimethyl-3-oxo-6,7,8,11,12,14,15,16-octahydrocyclopenta[a]phenanthren-17-yl]propanoate], the “dose that suppresses the HPA axis (as low as)” value is 2 grams per day.
